Counter-ions that a name gives are not always drawn. Like-named read-outs stand apart in the source and are kept apart here.
What was measured:
[1] = test system: Orlando strain Aedes aegypti females; conditions: essential oil or PBO alone, topical
Protocol: Plant essential oils were obtained from Berje, Inc. (Carteret, NJ, USA). […] Sucrose for sugar water was obtained from Domino (Baltimore, MD, USA).
Pupae were provided by the USDA prior to experiments.
J. Med. Entomol. […] Topical applications were performed by anesthetizing adult female mosquitoes on ice for 5 min, and then placing them on a cold, glass Petri dish to prevent reanimation. A Whatman No. 2 filter paper was used to prevent mosquitoes from coming in contact with excess condensation. A 0.2 μL volume of each treatment was applied to the pronotum of each mosquito using a Hamilton (Reno, NV, USA) repeating applicator with a gastight Hamilton syringe and placed in 470 mL deli paper cups. […] Ten mosquitoes were treated for each concentration representing one replicate, and at least three different cohorts of mosquitoes were used for each concentration in an effort to control for biological variability in the mosquitoes produced by the Orlando colony. A cohort was defined as a distinct rearing group (i.e., adult mosquitoes obtained from distinct batches of eggs placed in water to initiate development each week). Controls were performed using the vehicle, ethanol. Tulle fabric, fastened to the cup with a deli cup lid rim (center removed), was used to keep mosquitoes from escaping. Deli cups containing ten treated mosquitoes per concentration per replicate were placed in an incubator for the remainder of the experimental interval and kept at the same temperature and light cycle as during rearing. Knockdown, defined as the inability to fly or maintain normal standing posture, was recorded at 1 h, and mortality was recorded at 24 h. Mortality was defined as no movement, even after gently tapping the cup several times to assess response.
VI. Potentiation and antagonism of organophosphorus and carbamate insecticides. Econ. Entomol. […] To compare effects at discrete doses to one another or between those and control, an ANOVA (α=0.05) with a Tukey's post-test was used with an α value of 0.05.

[2] = test system: female Aedes aegypti mosquitoes; format: in vivo; conditions: screened individually at the sublethal concentrations used in the mixtures (TCA 10, TFA 50 μg/cm^2)

Structure (SMILES) | 1 h % Knockdown ± SE, Synergist ([1]; 2 μg/insect) | 24 h % Mortality ± SE, Synergist ([1]; 2 μg/insect) | 1 h % Knockdown ± SE, Synergist ([1]; 10 μg/insect) | 24 h % Mortality ± SE, Synergist ([1]; 10 μg/insect, listed as Piperonyl butoxide (PBO)) | toxicity by themselves [2]
CCCCOCCOCCOCc1cc2c(cc1CCC)OCO2 [PBO, Piperonyl butoxide] | 6.7 ± 3.7% | 6.7 ± 2.4% | 21.7 ± 4 % | statistically significant | 
CC(C)=CC1C(C(=O)O)C1(C)C (stereo not drawn) [TCA, 1R-trans-chrysanthemic acid] |  |  |  |  | no toxicity
CC1(C)[C@H](C=C(Cl)Cl)[C@H]1C(=O)O [TFA, (1R,3S)-3-(2,2-dichloroethenyl)-2,2-dimethylcyclopropanecarboxylic acid] |  |  |  |  | no toxicity
